Experimental findings from US11639343B2, “Compounds targeting and degrading BCR-ABL protein and its antitumor application” (ShanghaiTech University, priority 2019, dated 2023) are described below.

Data set [1] deals with U937 (BCR-ABL-) cells. Put plainly: CCK-8 proliferation inhibition, U937 cells.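 Further: Ten-point threefold dilution series, absorbance at 450 nm after 2 h with CCK-8 reagent, DMSO as negative control.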 Format: cell-based, human. The settings on record: Homo sapiens, U-937; CCK-8, 48 hours of drug treatment, highest concentration 10 μM; read-out: Proliferative inhibitory activity (IC50, nM) U937 (BCR-ABL-).
The target in data set [2] is T1, BCR-ABL protein (Homo sapiens, UniProt P00519). Put plainly: Western blot degradation of BCR-ABL in K562 cells. Format: cell-based. Details: Western blot was used to detect the expression of BCR-ABL and c-ABL protein in K562 cells; BCR (fusion partner, P11274); endogenous in cells; host or cells: K562; the other entry of the earlier key: BCR (P11274, Breakpoint cluster region protein). The settings on record: 16 hours, 1 nM-10 μM. The gist of the method:
(§1)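 Lysates were normalized by Bradford and run on SDS-PAGE with nitrocellulose transfer. DC50 was derived from band intensities by non-linear regression.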

In data set [3] the target is T2, c-ABL protein (Homo sapiens, UniProt P00519). Kind of data set: Western blot degradation of c-ABL in K562 cells. Format: cell-based. Also on record: Western blot was used to detect the expression of BCR-ABL and c-ABL protein in K562 cells; endogenous in cells; host or cells: K562. The note with it: 16 hours, 1 nM-10 μM. The gist of the method:
as §1
In general terms: In western blotting, separated proteins are transferred to a membrane and probed.

Data set [4] relates to K562 (BCR-ABL+) cells. Put plainly: CCK-8 proliferation inhibition, K562 cells.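 Further: Ten-point threefold dilution series starting at 10 µM, absorbance at 450 nm after 2 h with CCK-8, DMSO as negative control.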 The class given is cell-based, human. The settings on record: Homo sapiens, K562, 48 h, CCK-8, 48 hours of drug treatment; read-out: Proliferative inhibitory activity (IC50, nM) K562 (BCR-ABL+).
Data set [5] has as its target T2, c-ABL protein. Put plainly: Degradation of c-ABL protein in vivo. Also on record: from tissue; host or cells: in vivo. The source says: (§2) We further study whether PROTAD compound of the disclosure can induce BCR-ABL protein degradation in vivo. We still took the compound SIAIS151178 of Dasa-Lin-VHL system as the representative one.
The test system of data set [6] is HEK293 (BCR-ABL-) cells. Put plainly: CCK-8 proliferation inhibition, HEK293 cells.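 Further: Ten-point threefold dilution series starting at 10 µM, CCK-8 absorbance at 450 nm read after 2 h reagent incubation, DMSO-treated cells as negative control.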 The note with it: Homo sapiens, HEK293, 48 h, read-out: Proliferative inhibitory activity (IC50, nM) HEK293 (BCR-ABL-).
Data set [7] concerns the target T1, BCR-ABL protein. Put plainly: Degradation of BCR-ABL protein in vivo. Also on record: BCR (fusion partner, P11274); from tissue; host or cells: in vivo; the other entry of the earlier key: BCR (P11274, Breakpoint cluster region protein).
Source text: as §2

Data set [8] in a line: Body weight and toxicity in the K562 transplanted mouse model. The note with it: NOD-SCID mice, during the experiment period. The class given is in vivo. The source says: (§3) (2) BCR-ABL+K562 cell transplanted mouse model: 5*106 k562 Luc cells were inoculated into the subcutaneous of immunodeficient NOD-SCID mice. After 2 weeks, the tumor volume of mice was nearly 200 mm^3. The mice were randomly divided into 5 groups. […] At the same time, the mice were imaged in vivo to observe the tumor-bearing condition. Then stop the administration and observe the recurrence of the tumor.

Data set [9] deals with Src protein kinase, kit, PDGFR. Put plainly: Degradation of other tyrosine kinase receptors.
Data set [10] concerns K562 cell transplantation tumor. Put plainly: BCR-ABL+ K562 cell transplanted tumor model in mice. The class given is in vivo.
Source text: (1) Establishment of K562 Luc cells: the target fragment of luciferase was cloned into lentivirus vector Plenti-IRES-ZSGREEN, and a K562-Luc cell line stably expressing luciferase was established on K562 cells by using lentivirus infection system.
as §3

For data set [11], the system named is BCR-ABL signal pathway. Kind of data set: BCR-ABL signal pathway activity in vivo.
Source text: as §2

The test system of data set [12] is BCR-ABL-G250E/V299L/F317L/F317V. Kind of data set: Western blot degradation of BCR-ABL drug resistance mutants in U937 cells. The class given is cell-based, human. The note with it: U937 cells stably expressing mutants, 24 hours, 10 nM-10 μM. As for the experimental part: (1) Establishment of stable BCR-ABL mutant: the target fragment of BCR-ABL was cloned into retroviral vector pmigrl, and then PMIGR1-BCR-ABL-G250E/E255K/V299L/F317L/F317V/T315I/T315A and other mutant forms were obtained by using Stratagene-QuikChange® Site-Directed Mutagenesis Kit. Finally, the cell lines stably expressing BCR-ABL wild type and mutant were established on U937 cells by retrovirus infection system.
(1) Cell seed: Established cells are added to the 24 well plates, with a cell density of 3×10^5/ml and a total volume of 1.5 ml; Four concentration gradients, 10 nm, 100 nm, 1 μM, and 10 μM, are respectively set for PROTAD series compounds. […] After 24 hours of drug treatment, the cells were collected in 1.5 ml ep tube, centrifuged at 3000 rpm for 3 minutes, and then added 30 μL PBS and 30 μL 2×SDS to cell precipitated, lysate Heat at 100° C. for 5 minutes, then placed on ice for 5 minutes, centrifuged at 10000 rpm for 5 minutes, and take the supernatant as the total protein extracted. The effect of SIAS151178 on the mutational BCR-ABL protein was detected by Western blotting.

T2 sequence (P00519 whole entry): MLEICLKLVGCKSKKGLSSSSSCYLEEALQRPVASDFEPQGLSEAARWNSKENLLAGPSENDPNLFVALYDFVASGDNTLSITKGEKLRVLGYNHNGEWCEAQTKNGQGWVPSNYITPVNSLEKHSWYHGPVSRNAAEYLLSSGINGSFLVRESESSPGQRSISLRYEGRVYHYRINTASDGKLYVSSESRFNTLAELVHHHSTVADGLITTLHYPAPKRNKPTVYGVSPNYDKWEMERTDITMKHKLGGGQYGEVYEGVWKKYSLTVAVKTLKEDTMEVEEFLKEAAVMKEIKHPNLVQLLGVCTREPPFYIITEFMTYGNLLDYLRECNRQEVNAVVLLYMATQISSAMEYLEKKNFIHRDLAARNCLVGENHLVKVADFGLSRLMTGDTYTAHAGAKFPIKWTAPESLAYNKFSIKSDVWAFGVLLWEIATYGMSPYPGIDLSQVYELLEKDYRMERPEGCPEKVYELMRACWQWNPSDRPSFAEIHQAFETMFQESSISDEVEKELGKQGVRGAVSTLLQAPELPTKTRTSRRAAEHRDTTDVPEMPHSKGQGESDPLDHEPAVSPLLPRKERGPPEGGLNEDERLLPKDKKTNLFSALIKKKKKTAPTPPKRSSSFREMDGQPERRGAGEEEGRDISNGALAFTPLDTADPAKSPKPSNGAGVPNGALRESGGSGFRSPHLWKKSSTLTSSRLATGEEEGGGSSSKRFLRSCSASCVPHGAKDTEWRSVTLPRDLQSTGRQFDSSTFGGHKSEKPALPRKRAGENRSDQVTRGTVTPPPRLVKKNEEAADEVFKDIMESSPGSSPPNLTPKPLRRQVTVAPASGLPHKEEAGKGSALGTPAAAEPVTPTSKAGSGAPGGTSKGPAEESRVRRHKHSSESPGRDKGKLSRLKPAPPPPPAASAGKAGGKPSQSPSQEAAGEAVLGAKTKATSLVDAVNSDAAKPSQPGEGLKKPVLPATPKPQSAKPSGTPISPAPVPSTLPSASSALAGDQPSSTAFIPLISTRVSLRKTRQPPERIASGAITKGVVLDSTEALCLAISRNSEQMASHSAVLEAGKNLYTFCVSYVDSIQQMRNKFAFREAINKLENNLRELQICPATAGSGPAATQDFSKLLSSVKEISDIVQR
T1 sequence (P00519 with tags, fused parts or gaps): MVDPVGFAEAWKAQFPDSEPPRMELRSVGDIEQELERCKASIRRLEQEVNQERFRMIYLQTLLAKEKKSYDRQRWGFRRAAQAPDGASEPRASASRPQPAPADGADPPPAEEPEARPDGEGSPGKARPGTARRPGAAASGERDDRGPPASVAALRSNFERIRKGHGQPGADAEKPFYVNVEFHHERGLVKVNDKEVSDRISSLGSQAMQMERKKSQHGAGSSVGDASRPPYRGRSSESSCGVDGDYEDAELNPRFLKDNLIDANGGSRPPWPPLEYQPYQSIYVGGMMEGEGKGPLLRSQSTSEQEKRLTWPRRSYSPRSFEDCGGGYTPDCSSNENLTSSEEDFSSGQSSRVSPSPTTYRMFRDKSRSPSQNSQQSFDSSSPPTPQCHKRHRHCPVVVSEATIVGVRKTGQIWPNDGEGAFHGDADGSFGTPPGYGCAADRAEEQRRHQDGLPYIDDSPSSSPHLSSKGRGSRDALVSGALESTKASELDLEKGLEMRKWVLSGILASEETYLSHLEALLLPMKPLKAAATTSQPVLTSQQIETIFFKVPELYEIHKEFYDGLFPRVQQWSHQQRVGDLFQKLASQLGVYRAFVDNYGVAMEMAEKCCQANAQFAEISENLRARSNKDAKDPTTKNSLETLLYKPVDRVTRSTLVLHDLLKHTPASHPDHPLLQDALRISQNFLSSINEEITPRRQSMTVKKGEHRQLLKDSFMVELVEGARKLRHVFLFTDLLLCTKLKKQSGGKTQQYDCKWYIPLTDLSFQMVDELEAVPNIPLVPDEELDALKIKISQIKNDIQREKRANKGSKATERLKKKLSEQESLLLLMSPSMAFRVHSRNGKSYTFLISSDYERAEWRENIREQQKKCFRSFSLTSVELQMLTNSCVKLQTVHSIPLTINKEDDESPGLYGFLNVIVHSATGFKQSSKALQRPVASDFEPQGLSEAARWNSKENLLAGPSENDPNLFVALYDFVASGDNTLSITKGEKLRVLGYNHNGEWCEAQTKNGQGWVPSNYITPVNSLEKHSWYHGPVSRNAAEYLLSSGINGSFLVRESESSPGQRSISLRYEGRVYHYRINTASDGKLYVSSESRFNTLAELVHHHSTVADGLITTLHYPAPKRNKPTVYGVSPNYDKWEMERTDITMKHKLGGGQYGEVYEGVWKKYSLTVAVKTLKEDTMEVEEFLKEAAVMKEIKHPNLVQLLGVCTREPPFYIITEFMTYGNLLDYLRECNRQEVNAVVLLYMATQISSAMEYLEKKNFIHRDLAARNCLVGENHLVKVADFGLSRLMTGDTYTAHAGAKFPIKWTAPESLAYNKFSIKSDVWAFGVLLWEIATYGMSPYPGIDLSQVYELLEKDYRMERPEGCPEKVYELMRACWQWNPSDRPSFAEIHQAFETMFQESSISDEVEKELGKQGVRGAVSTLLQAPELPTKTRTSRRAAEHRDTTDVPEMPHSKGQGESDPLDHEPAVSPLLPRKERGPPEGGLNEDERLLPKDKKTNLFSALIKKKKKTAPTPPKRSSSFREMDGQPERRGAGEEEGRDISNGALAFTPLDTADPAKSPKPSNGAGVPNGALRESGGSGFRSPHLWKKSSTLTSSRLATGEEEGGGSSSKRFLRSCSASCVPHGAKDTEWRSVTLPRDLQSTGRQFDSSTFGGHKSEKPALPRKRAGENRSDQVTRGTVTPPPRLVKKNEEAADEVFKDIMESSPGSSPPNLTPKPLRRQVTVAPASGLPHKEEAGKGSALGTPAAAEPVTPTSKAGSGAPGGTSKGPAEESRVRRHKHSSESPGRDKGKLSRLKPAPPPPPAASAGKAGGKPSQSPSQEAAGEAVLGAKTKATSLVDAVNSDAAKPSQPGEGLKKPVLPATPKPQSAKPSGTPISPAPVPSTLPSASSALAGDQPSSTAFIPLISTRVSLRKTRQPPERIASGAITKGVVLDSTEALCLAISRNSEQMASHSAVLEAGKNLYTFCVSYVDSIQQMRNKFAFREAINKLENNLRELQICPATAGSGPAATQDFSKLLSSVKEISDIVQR

`Cc1nc(Nc2ncc(C(=O)Nc3c(C)cccc3Cl)s2)cc(N2CCN(C(=O)CCCCCCC(=O)N[C@H](C(=O)N3C[C@H](O)C[C@H]3C(=O)NCc3ccc(-c4scnc4C)cc3)C(C)(C)C)CC2)n1` [SIAIS151178, N-(2-chloro-6-methylphenyl)-2-((6-(4-(8-(((S)-1-((2S,4R)-4-hydroxy-2-((4-(4-methylthiazol-5-yl)benzyl)carbamoyl)pyrrolidin-1-yl)-3,3-dimethyl-1-oxobutan-2-yl)amino)-8-oxooctanoyl)piperazin-1-yl)-2-methylpyrimidin-4-yl)amino)thiazole-5-carboxamide]: the figures for the IC50 in [1], in data set [4] and in data set [6] were more than 10000 nM, 41.3 nM and more than 10000 nM, respectively. The DC50 in data set [2] lay within 1 to 10 nM; in data set [3] it was 10 to 100 nM. In data set [5], the “degradation of c-ABL protein in vivo” value is “can also degrade BCR-ABL and c-ABL protein in a dose-dependent manner in vivo”. In addition, the “degradation of BCR-ABL protein in vivo” value in data set [7] is “can also degrade BCR-ABL and c-ABL protein in a dose-dependent manner in vivo”. Moreover, the bodyweight of mice result in data set [8] was “no significant effect on the bodyweight of mice”. Further, the “toxic and side effects” value in data set [8] was “no obvious toxic and side effects were found”. Besides, in data set [9], the “degradation of other tyrosine kinase receptors” value is on record as “can also degrade other tyrosine kinase receptors, such as Src protein kinase, kit, PDGFR”. Further, the tumor decrease result in data set [10] (NOD-SCID mice, 15 mg/kg) is recorded as “can cause tumor decrease”. The “growth of K562 cell transplantation tumor” value in [10] (NOD-SCID mice, 5, 15, 45 mg/kg, 2 weeks) is listed as “can inhibit the growth of K562 cell transplantation tumor in a dose-dependent manner”. Besides, in data set [11], the “BCR-ABL signal pathway activity in vivo” value is listed as “significantly inhibit the BCR-ABL signal pathway activity”. In addition, in data set [12], the “degradation of BCR-ABL mutants related to clinical drug resistance” value is reported as “can significantly degrade the mutant forms of BCR-ABL-G250E/V299L/F317L/F317V in a dose-dependent manner”.
For the compound `Cc1nc(Nc2ncc(C(=O)Nc3c(C)cccc3Cl)s2)cc(N2CCN(C(=O)CCCCCOCCOCCOCCCCCC(=O)Nc3cccc4c3C(=O)N(C3CCC(=O)NC3=O)C4=O)CC2)n1` (stereo not drawn) [SIAIS171114, N-(2-chloro-6-methylphenyl)-2-((6-(4-(6-(2-(2-((6-((2-(2,6-dioxopiperidin-3-yl)-1,3-dioxoisoindolin-4-yl)amino)-6-oxohexyl)oxy)ethoxy)ethoxy)hexanoyl)piperazin-1-yl)-2-methylpyrimidin-4-yl)amino)thiazole-5-carboxamide], the IC50 in data set [1] was more than 10000 nM; in data set [4], 2.57 nM; in data set [6] it was more than 10000 nM. The DC50 in data set [2] and in [3] was 10 to 100 nM in each case.
Consider `Cc1nc(Nc2ncc(C(=O)Nc3c(C)cccc3Cl)s2)cc(N2CCN(C(=O)CCc3cccc4c3C(=O)N(C3CCC(=O)NC3=O)C4=O)CC2)n1` (stereo not drawn) [SIAIS172150, N-(2-chloro-6-methylphenyl)-2-((6-(4-(3-(2-(2,6-dioxopiperidin-3-yl)-1,3-dioxoisoindolin-4-yl)propanoyl)piperazin-1-yl)-2-methylpyrimidin-4-yl)amino)thiazole-5-carboxamide], for which the IC50 is more than 10000 nM in data set [1], 2.84 nM in data set [4] and more than 10000 nM in [6]. In addition, the DC50 in data set [2] and in data set [3] was 10 to 100 nM in each case.
Regarding `Cc1nc(Nc2ncc(C(=O)Nc3c(C)cccc3Cl)s2)cc(N2CCN(C(=O)CCCCNc3cccc4c3CN(C3CCC(=O)NC3=O)C4=O)CC2)n1` (stereo not drawn) [SIAIS184052, N-(2-chloro-6-methylphenyl)-2-((6-(4-(5-((2-(2,6-dioxopiperidin-3-yl)-1-oxoisoindolin-4-yl)amino)pentanoyl)piperazin-1-yl)-2-methylpyrimidin-4-yl)amino)thiazole-5-carboxamide], the IC50 is more than 10000 nM in data set [1], 4.2 nM in data set [4] and more than 10000 nM in data set [6]. The values for the DC50 in [2] and in data set [3] were 1 to 10 nM and 10 to 100 nM, respectively.
As for `Cc1nc(Nc2ncc(C(=O)Nc3c(C)cccc3Cl)s2)cc(N2CCN(C(=O)CCCC(=O)Nc3cccc4c3C(=O)N(C3CCC(=O)NC3=O)C4=O)CC2)n1` (stereo not drawn) [SIAIS184053, N-(2-chloro-6-methylphenyl)-2-((6-(4-(5-((2-(2,6-dioxopiperidin-3-yl)-1,3-dioxoisoindolin-4-yl)amino)-5-oxopentanoyl)piperazin-1-yl)-2-methylpyrimidin-4-yl)amino)thiazole-5-carboxamide], the IC50 in [1] is more than 10000 nM; in data set [4], 16.5 nM; in [6] it was more than 10000 nM. The DC50 in data set [2] and in [3] was 10 to 100 nM in each case.
In the case of `Cc1nc(Nc2ncc(C(=O)Nc3c(C)cccc3Cl)s2)cc(N2CCN(C(=O)COc3cccc4c3C(=O)N(C3CCC(=O)NC3=O)C4=O)CC2)n1` (stereo not drawn) [SIAIS184128, N-(2-chloro-6-methylphenyl)-2-((6-(4-(2-((2-(2,6-dioxopiperidin-3-yl)-1,3-dioxoisoindolin-4-yl)oxy)acetyl)piperazin-1-yl)-2-methylpyrimidin-4-yl)amino)thiazole-5-carboxamide], the IC50 in data set [1] was more than 10000 nM; in [4] it was 7 nM; in data set [6] it was more than 10000 nM. Moreover, the DC50 in [2] and in data set [3] was 1 to 10 nM throughout.

For orientation: IC50 means the concentration that inhibits the measured activity by half. For orientation: DC50 means the concentration giving 50% degradation.
